The text below walks through data of PMC12593396 (2025).

Assay [1] has as its system 4WJ (DNA, junction) GCCTAGCATGATACTGCTACCG/CGGTAGCAGTACCGTTGGTGGC/GCCACCAACGGCGTCAACTGCC/GGCAGTTGACGTCATGCTAGGC
As to the kind of experiment: UV melting. To be noted: 100 mM NaCl; 10 mM Na cacodylate; 1 equivalent compound.

In assay [2] the test system is Cy5–3WJ-T3 (DNA, junction) CGGAACGGCACTCGTTTCGAGTGCAGCGTGGTTTCCACGCTCGTTCCG
As to the kind of experiment: MST. Particulars: 100 mM NaCl, 10 mM Na cacodylate.

For assay [3], the system named is 3WJ-T6 (DNA, junction) ACTCTTCTCGTTTTTTCGAGAGCGACTTTTTTGTCGCAGAGT
Briefly: ITC. To be noted: 100 mM NaCl, 10 mM sodium cacodylate, pH 7.4, 25 °C, at ITC detection limit.

Assay [4] concerns FAM–4WJ (DNA, junction) GCCTAGCATGATACTGCTACCG/CGGTAGCAGTACCGTTGGTGGC/GCCACCAACGGCGTCAACTGCC/GGCAGTTGACGTCATGCTAGGC
Briefly: MST. To be noted: 100 mM NaCl; 10 mM Na cacodylate; not saturated, highest 100 μM.

Assay [5] has as its system Y-fork (DNA, junction) CGGTAGCAGTACCGTTGGTGGC/GCCACCAACGGCGTCAACTGCC
Briefly: PAGE competition. Particulars: competes with 3WJ-FAM; ~22% decrease of 3WJ at 4 equivalents.

Assay [6] deals with DS-21 (MST) (DNA, duplex) CCTTCACGCGAACGTAATCCT/AGGATTACGTTCGCGTGAAGG
Briefly: MST. To be noted: highest tested 50 μM; authors suggest Kd at best high micromolar.

Assay [7] deals with DS-21 (CD) (DNA, duplex) CCTTCACGCGAACGTAATCCT/AGGATTACGTTCGCGTGAAGG
As to the kind of experiment: CD. Particulars: 1 equivalent compound.

Take `C(=Nc1ccc(Cc2ccc(N=Cc3ccccn3)cc2)cc1)c1ccccn1.C(=Nc1ccc(Cc2ccc(N=Cc3ccccn3)cc2)cc1)c1ccccn1.C(=Nc1ccc(Cc2ccc(N=Cc3ccccn3)cc2)cc1)c1ccccn1.[Ni+2].[Ni+2]`: in assay [1], the ΔTm worked out at 8.8 ± 1.0 °C. In addition, the Kd in assay [2] (0.1% Tween-20, 25 °C, 1 nM DNA) is 5.15 ± 0.67 × 10^–10 M; in assay [3], 7.17 ± 0.51 × 10^–9 M.

As for `[Pt+2].[Pt+2].c1cncc(Oc2ccc(Oc3cccnc3)cc2)c1.c1cncc(Oc2ccc(Oc3cccnc3)cc2)c1.c1cncc(Oc2ccc(Oc3cccnc3)cc2)c1.c1cncc(Oc2ccc(Oc3cccnc3)cc2)c1`, the ΔTm in assay [1] stood at 6.0 ± 1.1 °C. In addition, the Kd in assay [4] is more than 4 µM; in assay [2] (0.1% Tween, 25 °C, 20 nM DNA), 1.22 ± 0.22 × 10^–8 M; in assay [3] (0.5% acetonitrile) it was 9.94 ± 4.36 × 10^–9 M. Further, the values for the binding entry in assay [5], in assay [6] and in assay [7] were “weak”, “no” and “weak”, respectively.

One may read the ΔTm as the shift of the melting midpoint relative to a reference. In general, Kd refers to the equilibrium constant for the complex coming apart. High values mean lower affinity, low ones higher affinity.
